{"source": "patent US6914045B2", "about": "“Glycopeptide antibiotics” (Wyeth Holdings Corporation, priority 2001, dated 2005)", "test_in_all_cases": "in vitro antibacterial evaluation, MIC by broth dilution", "type_in_all_cases": "cell-based", "key": {"[1]": {"tested_on": "Streptococcus sp.", "details": "broth dilution, 18 hours at 35° C.", "procedure,_shortened": "(§1)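 Test organisms, which included recent clinical isolates resistant to methicillin, penicillin and/or vancomycin, were inoculated at 5×10^5 CFU/mL into Muller-Hinton II […] containing antibiotic at 64-0.06 μg/mL. Minimum inhibitory concentrations were then read as the lowest level inhibiting growth.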"}, "[2]": {"tested_on": "Escherichia coli", "details": "18 hours at 35° C.", "procedure,_shortened": "as §1"}, "[3]": {"tested_on": "Staphylococcus sp.", "details": "broth dilution, 18 hours at 35° C.", "procedure,_shortened": "as §1"}, "[4]": {"tested_on": "Enterococcus sp.", "details": "broth dilution, 18 hours at 35° C.", "procedure,_shortened": "as §1"}}}
{"smiles": "CC(c1ccccc1)C1NC(=O)CNC(=O)C(CO)NC(=O)C(C(O)C2CNC(=N)N2C2OC(CO)C(O)C(O)C2O)NC(=O)C(C(O)C2CNC(=N)N2)NC(=O)C(Cc2ccc(OC3OC(CO)C(OC4OC5COC(C67CC8CC(CC(C8)C6)C7)OC5C(O)C4O)C(O)C3O)cc2)NC1=O", "note": "(stereo not drawn) [Example 127]", "values": [{"measurement": "MIC Streptococcus agalactiae (GC 4564)", "setting": "[1]; Streptococcus agalactiae (GC 4564)", "result": "<0.12", "unit": "µg/mL"}, {"measurement": "MIC Streptococcus pneumoniae (ATCC 6301)", "setting": "[1]; Streptococcus pneumoniae (ATCC 6301)", "result": "<0.12", "unit": "µg/mL"}, {"measurement": "MIC Streptococcus pneumoniae (GC 1894)", "setting": "[1]; Streptococcus pneumoniae (GC 1894)", "result": "<0.12", "unit": "µg/mL"}, {"measurement": "MIC Streptococcus pneumoniae (GC 4565)", "setting": "[1]; Streptococcus pneumoniae (GC 4565)", "result": "<0.12", "unit": "µg/mL"}, {"measurement": "MIC Streptococcus pyogenes (GC 4563)", "setting": "[1]; Streptococcus pyogenes (GC 4563)", "result": 0.25, "unit": "µg/mL"}, {"measurement": "MIC Streptococcus pneumoniae (ATCC 6301)", "setting": "[1]; strain ATCC 6301", "result": "<0.12", "unit": "µg/mL"}, {"measurement": "MIC Streptococcus pneumoniae (GC 1894)", "setting": "[1]; strain GC 1894", "result": "<0.12", "unit": "µg/mL"}, {"measurement": "MIC Streptococcus pyogenes (GC 4563)", "setting": "[1]; strain GC 4563", "result": 0.25, "unit": "µg/mL"}, {"measurement": "MIC Streptococcus agalactiae (GC 4564)", "setting": "[1]; strain GC 4564", "result": "<0.12", "unit": "µg/mL"}, {"measurement": "MIC Streptococcus pneumoniae (GC 4565)", "setting": "[1]; strain GC 4565", "result": "<0.12", "unit": "µg/mL"}, {"measurement": "MIC Escherichia coli (ATCC 25922)", "setting": "[2]; strain ATCC 25922", "result": 64, "unit": "µg/mL"}, {"measurement": "MIC Escherichia coli (GC 4559)", "setting": "[2]; strain GC 4559", "result": 64, "unit": "µg/mL"}, {"measurement": "MIC Escherichia coli (GC 4560)", "setting": "[2]; strain GC 4560", "result": 4, "unit": "µg/mL"}, {"measurement": "MIC Staphylococcus aureus (ATCC 29213)", "setting": "[3]", "result": 2, "unit": "µg/mL"}, {"measurement": "MIC Staphylococcus aureus (GC 1131)", "setting": "[3]", "result": 4, "unit": "µg/mL"}, {"measurement": "MIC Staphylococcus aureus (GC 3051)", "setting": "[3]", "result": 2, "unit": "µg/mL"}, {"measurement": "MIC Staphylococcus aureus (GC 3053)", "setting": "[3]", "result": 2, "unit": "µg/mL"}, {"measurement": "MIC Staphylococcus aureus (GC 4541)", "setting": "[3]", "result": 4, "unit": "µg/mL"}, {"measurement": "MIC Staphylococcus aureus (GC 4542)", "setting": "[3]", "result": 2, "unit": "µg/mL"}, {"measurement": "MIC Staphylococcus aureus (GC 4544)", "setting": "[3]", "result": 4, "unit": "µg/mL"}, {"measurement": "MIC Staphylococcus aureus (GC 4545)", "setting": "[3]", "result": 2, "unit": "µg/mL"}, {"measurement": "MIC Staphylococcus aureus (GC 1131)", "setting": "[3]; inoculum 5×10^5 CFU/mL, strain GC 1131", "result": 4, "unit": "µg/mL"}, {"measurement": "MIC Staphylococcus aureus (ATCC 29213)", "setting": "[3]; strain ATCC 29213", "result": 2, "unit": "µg/mL"}, {"measurement": "MIC Staphylococcus aureus (GC 3051)", "setting": "[3]; strain GC 3051", "result": 2, "unit": "µg/mL"}, {"measurement": "MIC Staphylococcus aureus (GC 3053)", "setting": "[3]; strain GC 3053", "result": 2, "unit": "µg/mL"}, {"measurement": "MIC Staphylococcus aureus (GC 4541)", "setting": "[3]; strain GC 4541", "result": 4, "unit": "µg/mL"}, {"measurement": "MIC Staphylococcus aureus (GC 4542)", "setting": "[3]; strain GC 4542", "result": 2, "unit": "µg/mL"}, {"measurement": "MIC Staphylococcus aureus-SMITH (GC 4543)", "setting": "[3]; strain GC 4543", "result": 2, "unit": "µg/mL"}, {"measurement": "MIC Staphylococcus aureus (GC 4544)", "setting": "[3]; strain GC 4544", "result": 4, "unit": "µg/mL"}, {"measurement": "MIC Staphylococcus aureus (GC 4545)", "setting": "[3]; strain GC 4545", "result": 2, "unit": "µg/mL"}, {"measurement": "MIC Staphylococcus haemolyticus (GC 4546)", "setting": "[3]; strain GC 4546", "result": 2, "unit": "µg/mL"}, {"measurement": "MIC Coagulase Negative Staphylococcus (GC 4547)", "setting": "[3]; strain GC 4547", "result": 4, "unit": "µg/mL"}, {"measurement": "MIC Coagulase Negative Staphylococcus (GC 4548)", "setting": "[3]; strain GC 4548", "result": 2, "unit": "µg/mL"}, {"measurement": "MIC Coagulase Negative Staphylococcus (GC 4549)", "setting": "[3]; strain GC 4549", "result": 1, "unit": "µg/mL"}, {"measurement": "MIC Coagulase Negative Staphylococcus (GC 4551)", "setting": "[3]; strain GC 4551", "result": 2, "unit": "µg/mL"}, {"measurement": "MIC Staphylococcus aureus-SMITH (GC 4543)", "setting": "[3]; strain SMITH GC 4543", "result": 2, "unit": "µg/mL"}, {"measurement": "MIC Enterococcus avium (GC 4558)", "setting": "[4]; Enterococcus avium (GC 4558)", "result": 2, "unit": "µg/mL"}, {"measurement": "MIC Enterococcus faecalis (ATCC 29212)", "setting": "[4]; Enterococcus faecalis (ATCC 29212)", "result": 2, "unit": "µg/mL"}, {"measurement": "MIC Enterococcus faecalis (GC 2242)", "setting": "[4]; Enterococcus faecalis (GC 2242)", "result": 4, "unit": "µg/mL"}, {"measurement": "MIC Enterococcus faecalis (GC 2691)", "setting": "[4]; Enterococcus faecalis (GC 2691)", "result": 4, "unit": "µg/mL"}, {"measurement": "MIC Enterococcus faecalis (GC 3059)", "setting": "[4]; Enterococcus faecalis (GC 3059)", "result": 2, "unit": "µg/mL"}, {"measurement": "MIC Enterococcus faecalis (GC 4552)", "setting": "[4]; Enterococcus faecalis (GC 4552)", "result": 4, "unit": "µg/mL"}, {"measurement": "MIC Enterococcus faecalis (GC 4553)", "setting": "[4]; Enterococcus faecalis (GC 4553)", "result": 4, "unit": "µg/mL"}, {"measurement": "MIC Enterococcus faecalis (GC 4554)", "setting": "[4]; Enterococcus faecalis (GC 4554)", "result": 4, "unit": "µg/mL"}, {"measurement": "MIC Enterococcus faecalis (GC 6189)", "setting": "[4]; Enterococcus faecalis (GC 6189)", "result": 2, "unit": "µg/mL"}, {"measurement": "MIC Enterococcus faecium (GC 2243)", "setting": "[4]; Enterococcus faecium (GC 2243)", "result": 4, "unit": "µg/mL"}, {"measurement": "MIC Enterococcus faecium (GC 4556)", "setting": "[4]; Enterococcus faecium (GC 4556)", "result": 4, "unit": "µg/mL"}, {"measurement": "MIC Enterococcus faecium (GC 4557)", "setting": "[4]; Enterococcus faecium (GC 4557)", "result": 4, "unit": "µg/mL"}, {"measurement": "MIC Enterococcus faecalis (ATCC 29212)", "setting": "[4]; strain ATCC 29212", "result": 2, "unit": "µg/mL"}, {"measurement": "MIC Enterococcus faecalis (GC 2242)", "setting": "[4]; strain GC 2242", "result": 4, "unit": "µg/mL"}, {"measurement": "MIC Enterococcus faecium (GC 2243)", "setting": "[4]; strain GC 2243", "result": 4, "unit": "µg/mL"}, {"measurement": "MIC Enterococcus faecalis (GC 2691)", "setting": "[4]; strain GC 2691", "result": 4, "unit": "µg/mL"}, {"measurement": "MIC Enterococcus faecalis (GC 3059)", "setting": "[4]; strain GC 3059", "result": 2, "unit": "µg/mL"}, {"measurement": "MIC Enterococcus faecalis (GC 4552)", "setting": "[4]; strain GC 4552", "result": 4, "unit": "µg/mL"}, {"measurement": "MIC Enterococcus faecalis (GC 4553)", "setting": "[4]; strain GC 4553", "result": 4, "unit": "µg/mL"}, {"measurement": "MIC Enterococcus faecalis (GC 4554)", "setting": "[4]; strain GC 4554", "result": 4, "unit": "µg/mL"}, {"measurement": "MIC Enterococcus faecium (GC 4556)", "setting": "[4]; strain GC 4556", "result": 4, "unit": "µg/mL"}, {"measurement": "MIC Enterococcus faecium (GC 4557)", "setting": "[4]; strain GC 4557", "result": 4, "unit": "µg/mL"}, {"measurement": "MIC Enterococcus avium (GC 4558)", "setting": "[4]; strain GC 4558", "result": 2, "unit": "µg/mL"}, {"measurement": "MIC Enterococcus faecalis (GC 6189)", "setting": "[4]; strain GC 6189", "result": 2, "unit": "µg/mL"}]}
